What was measured:
bovine brain tubulin = test: Tubulin polymerization monitored turbidimetrically; assay type: biochemical
Protocol: (§1) Discodermolide was analyzed for its interactions with tubulin. Tubulin polymerization was monitored turbidimetrically at 350 nm with an electronic temperature controller. Reaction mixtures contained 0.1M 4-morpholine-ethanesulfonate (pH 6.9), 1.0 mg/ml (10 μM) electrophoretically-homogenous bovine brain tubulin freed of unbound nucleotide by gel filtration, 0.5 mg/ml heat-treated MAPs, 100 μM GTP, and 4% (v/v) dimethylsulfoxide. A concentration of 10 μM of discodermolide (curve 3) was compared with the same concentration of taxol (curve 2) and no drug (curve 1), as shown in FIG. 5.

BMSC 8.3 = test: Constitutive proliferation of murine non-lymphoid BMSC 8.3 cells; assay type: cell-based; details: Mus musculus; BMSC 8.3 proliferation; best response
Description: ^d Bone marrow stromal cells (MBSC) derived from CS7BL/6 mice.

[1] = tested on: MCF-7 cells and MDA-MB-231 cells; test: Growth of human breast carcinoma cells; assay type: cell-based; details: Breast carcinoma cell, results similar for both lines (MCF-7, MDA-MB-231)
Protocol: (§2) The effect of discodermolide on two human breast carcinoma cell lines, estrogen receptor positive MCF-7 cells, and estrogen receptor negative MDA-MB-231 cells, was determined. The results were compared with those obtained by treatment with taxol. Both lines were examined for drug effects on growth and by indirect immunofluorescence for effects on the microtubule cytoskeleton. The results were similar for both lines. […] These patterns appeared at concentrations as low as 10 nm.

[2] = tested on: GI-101A human breast cells; test: Cell cycle analysis of GI-101A human breast cells; assay type: cell-based; details: 24 hours
Protocol: Cell cycle studies were initiated in order to pinpoint a specific phase within the cell cycle in which discodermolide was exerting its antiproliferative effect. GI-101A human breast and A549 human lung cells were used as cell cycle targets to compare the effects of discodermolide and taxol on perturbation of the cell cycle. Cell cycle analyses were performed as follows: GI-101A and A549 cells were incubated at 37° C. in 10% CO2 in air in the presence or absence of varying concentrations of discodermolide or taxol (purchased from Molecular Probes, Eugene, Oreg.) for 48 hours. Cells were harvested, fixed in ethanol, and stained with 0.5 mg/ml of propidium iodide (P.I.) together with 0.1 mg/ml of RNase A. This procedure permeabilizes live cells and allows entry of P.I. to stain DNA. Stained preparations were analyzed on a Coulter EPICS ELITE with 488 nm excitation with the dead cells excluded by back-gating of P.I. preparations without detergent on forward and side scatter histograms. Fluorescence measurements and resulting DNA histograms were collected from at least 5,000 P.I. stained cells at an emission wavelength of 690 nm. Raw histogram data were further analyzed using a cell cycle analysis program (Multicycle, Phoenix Flow Systems).
Approximately 56% of the control cells comprise the G1 phase of the cell cycle, and 30% comprise the S phase. Only approximately 14% of cells are demonstrable in the G2 /M phase in asynchronous cultures at any one time mainly due to their high proliferative rate (FIG. 2A). At 24 hours post culture initiation with 100 ng/ml of discodermolide, the percentage of cells in G1 phase decreased to 22%. […] The percentage of cells in G1 decreased from 56% in the control to 27% in taxol-treated cultures.

tubulin [3] = test: EC50 for the polymerization of tubulin; assay type: biochemical; details: additional studies
Protocol: as §1

70Z/3 Pre-B = test: Constitutive proliferation of murine lymphoid 70Z/3 Pre-B cells; assay type: cell-based; details: Mus musculus; 70Z/3 Pre-B proliferation; best response
Description: (§4) The effects of discodermolide on the inhibition of constitutive proliferation of a number of lymphoid and non-lymphoid cell lines of mouse or human origin was investigated.

F7 Fibroblast = test: Constitutive proliferation of murine non-lymphoid F7 fibroblasts; assay type: cell-based; details: Mus musculus, best response
Description: as §4

tubulin [4] = test: Assembly of tubulin without MAPs or GTP; assay type: biochemical
Protocol: Discodermolide was analyzed for its interactions with tubulin. Tubulin polymerization was monitored turbidimetrically at 350 nm with an electronic temperature controller. Reaction mixtures contained 0.1M 4-morpholine-ethanesulfonate (pH 6.9), 1.0 mg/ml (10 μM) electrophoretically-homogenous bovine brain tubulin freed of unbound nucleotide by gel filtration, […], and 4% (v/v) dimethylsulfoxide. A concentration of 10 μM of discodermolide (curve 3) was compared with the same concentration of taxol (curve 2) and no drug (curve 1), as shown in FIG. 5.

[5] = tested on: Jurkat human leukemia cells; test: Cell cycle analysis of Jurkat human leukemia cells; assay type: cell-based; details: 48 hours, discodermolide 100 ng/ml
Protocol: Discodermolide and taxol were compared for their effects on the proliferation of Jurkat human leukemia cells. Cell cultures were similarly initiated in the presence and absence of various concentrations of discodermolide or taxol and incubated at 37° C. in 10% CO2 in air for 48 hours. Cells were harvested and stained and analyzed on a flow cytometer using standard procedures. […] The percentage of S-phase cells in both groups increased from 25% in the control to 38% in both discodermolide- and taxol-treated cells.

EL-4 Thymoma = test: Constitutive proliferation of murine lymphoid EL-4 thymoma cells; assay type: cell-based; details: Mus musculus; EL-4 Thymoma proliferation; best response
Description: as §4

[6] = tested on: microtubule cytoskeleton in MCF-7 cells and MDA-MB-231 cells; test: Indirect immunofluorescence for effects on the microtubule cytoskeleton of human breast carcinoma cells; assay type: cell-based
Protocol: as §2

M14 = test: NCI in vitro tumor cell line panel, LC50, melanoma; assay type: cell-based; details: human melanoma (M14)
Description: (§3) Discodermolide was additionally evaluated for its anti-proliferative effects utilizing the National Cancer Institute's in vitro tumor cell line panel. The results of these analyses are shown in the mean graphs presented as FIGS. 1A-1K. The data are presented using known and accepted measurements of "Growth Inhibition-50" (GI50), where growth of 50% of the cells is inhibited; "Total Growth Inhibition" (TGI), where growth of all cells is inhibited, i.e., cytostasis; and "Lethal Concentration-50" (LC50), where 50% of the cells are killed.

HCC-2998 = test: NCI in vitro tumor cell line panel, LC50, colon cancer; assay type: cell-based; details: human colon cancer (HCC-2998)
Description: as §3

COLO 205 = test: as above; assay type: cell-based; details: human colon cancer (COLO 205)
Description: as §3

human tumor cell lines = test: National Cancer Institute's in vitro tumor cell line panel; assay type: cell-based
Description: as §3

Compound: C=C/C=C\C(C)C(OC(N)=O)C(C)C(O)C(C)C/C(C)=C\C(C)C(O)C(C)/C=C\C(O)CC1OC(=O)C(C)C(O)C1C (single isomer, unassigned) [discodermolide]
- extent of tubulin polymerization at 0° C. (bovine brain tubulin; 10 μM drug, 0° C.): almost complete
- temperature at which tubulin polymerization/assembly began (bovine brain tubulin; 10 μM drug, 10 μM tubulin, MAPs, GTP, control 37° C.): 0 °C
- stability of assembly upon return of the mixture to 0° C. (bovine brain tubulin; 10 μM drug, control disassembled): remained stable
- mechanism of action in regard to stabilization of microtubules (bovine brain tubulin; compared to taxol): superior to that of taxol
- IC50 (BMSC 8.3): 50 nM
- IC50 [1]: 2.4 nM
- effect on cell cycle progression ([2]; GI-101A): block at G2 /M phase of the cell cycle
- percentage of cells in G2 /M ([2]; discodermolide 100 ng/ml, control 14%): 38%
- percentage of S phase cells ([2]; discodermolide 100 ng/ml, control 30%): 41%
- percentage of cells in G1 phase ([2]; discodermolide 100 ng/ml, control 56%): 22%
- EC50 (tubulin [3]): 2700 nM
- IC50 (70Z/3 Pre-B): 3 nM
- IC50 (F7 Fibroblast): 60 nM
- assembly of tubulin without MAPs or GTP (tubulin [4]): induced the assembly of tubulin
- assembly reactions compared to taxol (tubulin [4]; especially at low temperatures): more dramatic compared to those observed with taxol
- percentage of cells in G2 /M ([5]; control 7%): 27%
- percentage of S-phase cells ([5]; control 25%): 38%
- percentage of cells in G1 ([5]; control 68%): 35%
- IC50 (EL-4 Thymoma): 30 nM
- minimal effective concentration ([6]; Homo sapiens, Breast carcinoma cell, read-out: concentration at which immunofluorescence patterns appeared): 0.01 µM
- Immunofluorescence patterns ([6]; cellular microtubules): remarkable rearrangement of cellular microtubules
- LC50 (in words) (M14): particularly effective
- LC50 (in words) (HCC-2998): particularly effective
- LC50 (in words) (COLO 205): particularly effective
- selective cytotoxicity, number of cell lines for GI50 (human tumor cell lines; approximately 60 cell lines tested, GI50): 32 cell lines
- selective cytotoxicity, number of cell lines for TGI (human tumor cell lines; approximately 60 cell lines tested, TGI): 18 cell lines
- cytotoxicity pattern (COMPARE algorithm) (human tumor cell lines; statistical analysis of selective toxicity pattern): matched that of several previously tested microtubule interactive agents, including the pattern generated by taxol

From patent US5840750A, “Discodermolide compounds” (priority 1996, dated 1998)
